Consider ten compounds from article PMC2774619 (Current Chemical Genomics, 2008).

Where a name gives a salt, the structure may show the parent alone. Peptide text beside a SMILES is read from it.

The target in assay [1] is murine M1 muscarinic acetylcholine receptor (Rattus norvegicus, UniProt P08482). As to the kind of experiment: cell-based. The conditions noted are these: IC50, IP-One Assay.
Assay [2] has as its target free fatty acid receptor 1 (FFAR1) (Homo sapiens, UniProt O14842).
In assay [3] the target is neuropeptide S (NPS) receptor (Homo sapiens, UniProt Q6W5P4). The following applies: NPSR.
Sequence of neuropeptide S (NPS) receptor (Q6W5P4 whole entry): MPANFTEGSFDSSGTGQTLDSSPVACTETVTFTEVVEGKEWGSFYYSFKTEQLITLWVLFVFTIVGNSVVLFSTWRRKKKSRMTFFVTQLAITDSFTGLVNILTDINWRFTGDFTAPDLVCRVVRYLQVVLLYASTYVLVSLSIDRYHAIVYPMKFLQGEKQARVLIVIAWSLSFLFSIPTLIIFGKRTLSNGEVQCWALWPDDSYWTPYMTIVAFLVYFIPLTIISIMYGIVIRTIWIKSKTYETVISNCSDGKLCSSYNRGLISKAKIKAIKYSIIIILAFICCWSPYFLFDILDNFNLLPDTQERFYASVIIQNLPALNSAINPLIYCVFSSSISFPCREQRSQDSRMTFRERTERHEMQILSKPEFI
The target in another assay is NPS receptor. The following applies: read-out: Kd value of NPS receptor binding; reported previously; cited from earlier work.
Assay [4] has as its target NPS receptor (Homo sapiens) (UniProt Q6W5P4). The conditions noted are these: cited from earlier work.

Sequence of murine M1 muscarinic acetylcholine receptor (P08482 whole entry): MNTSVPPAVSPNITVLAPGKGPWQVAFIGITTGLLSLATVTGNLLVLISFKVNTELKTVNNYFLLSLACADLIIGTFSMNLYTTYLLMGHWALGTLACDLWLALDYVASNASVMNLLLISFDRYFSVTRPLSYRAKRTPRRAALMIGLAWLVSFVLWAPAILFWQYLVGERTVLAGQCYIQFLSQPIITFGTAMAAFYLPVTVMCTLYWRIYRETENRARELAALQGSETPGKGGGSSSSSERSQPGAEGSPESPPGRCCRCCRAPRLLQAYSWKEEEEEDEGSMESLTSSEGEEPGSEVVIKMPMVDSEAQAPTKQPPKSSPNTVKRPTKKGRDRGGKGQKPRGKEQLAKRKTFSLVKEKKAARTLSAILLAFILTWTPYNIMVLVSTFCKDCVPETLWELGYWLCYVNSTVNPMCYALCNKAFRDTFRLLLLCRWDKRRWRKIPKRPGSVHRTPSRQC
Sequence of Neuropeptide S (P0C0P6 68-89): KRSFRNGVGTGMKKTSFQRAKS
Sequence of NPS receptor (Homo sapiens) (Q6W5P4 whole entry): as the sequence (Q6W5P4 whole entry) above
Sequence of free fatty acid receptor 1 (FFAR1) (O14842 whole entry, species assumed): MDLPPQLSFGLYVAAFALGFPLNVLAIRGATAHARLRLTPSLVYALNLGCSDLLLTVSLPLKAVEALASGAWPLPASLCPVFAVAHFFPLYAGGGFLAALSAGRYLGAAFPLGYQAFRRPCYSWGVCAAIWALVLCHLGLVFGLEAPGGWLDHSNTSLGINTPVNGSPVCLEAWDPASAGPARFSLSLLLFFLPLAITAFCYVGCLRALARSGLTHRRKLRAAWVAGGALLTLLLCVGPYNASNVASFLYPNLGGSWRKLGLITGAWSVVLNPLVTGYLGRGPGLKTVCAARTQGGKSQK

Regarding `C[N+]1(C)[C@@H]2CC[C@H]1C[C@@H](OC(=O)C(CO)c1ccccc1)C2` (mixture of isomers) [Atropine methyl bromide], the IC50 in assay [1] came to 3 nM.
Same read-out and setting: as for `C[N+]1(C)[C@@H]2CC[C@H]1C[C@@H](OC(=O)C(CO)c1ccccc1)C2` (mixture of isomers) [Atropine methyl nitrate], the figure is 1 nM.
On the same count and under the same terms, next, `CN1[C@@H]2CC[C@H]1C[C@@H](OC(c1ccccc1)c1ccccc1N)C2` (some centres unmarked) [Aminobenztropine]: 3 nM.
As for `O=C(O)CCc1ccc(NCc2cccc(Oc3ccccc3)c2)cc1` [GW9508], the “Ratio b/a (EC50 IP-One / EC50 calcium)” value in assay [2] stood at 1.1.
In assay [1], `CC[N+](CC)(CC)CCOc1ccc(/C=C/c2ccccc2)cc1` [MG 624] yielded an IC50 of 398 nM.
For the compound `CSCC[C@H](NC(=O)CNC(=O)[C@@H](NC(=O)CNC(=O)[C@@H](NC(=O)CNC(=O)[C@H](CC(N)=O)NC(=O)[C@H](CCCNC(=N)N)NC(=O)[C@H](Cc1ccccc1)NC(=O)[C@@H](N)CO)C(C)C)[C@@H](C)O)C(=O)N[C@@H](CCCCN)C(=O)N[C@@H](CCCCN)C(=O)N[C@H](C(=O)N[C@@H](CO)C(=O)N[C@@H](Cc1ccccc1)C(=O)N[C@@H](CCC(N)=O)C(=O)N[C@@H](CCCNC(=N)N)C(=O)N[C@@H](C)C(=O)N[C@@H](CCCCN)C(=O)N[C@@H](CO)C(=O)O)[C@@H](C)O` [NPS, neuropeptide S] (H-SFRNGVGTGMKKTSFQRAKS-OH), the “Ratio b/a (EC50 IP-One / EC50 calcium)” value in assay [3] worked out at 1.9. The Kd at NPS receptor was 0.33 nM.
As to `CC(=O)O[C@H]1C[C@@H]2CC[C@@H]3[C@H](CC[C@@]4(C)[C@H]3C[C@H]([N+]3(C)CCCCC3)[C@@H]4OC(C)=O)[C@@]2(C)C[C@@H]1[N+]1(C)CCCCC1` [Pancuronium bromide], the IC50 in assay [1] was determined as 12600 nM.
`CC(C)[N+](C)(CCOC(=O)C1c2ccccc2Oc2ccccc21)C(C)C` [Propantheline bromide] showed an IC50 in assay [1] of 1 nM.
Still for that read-out and setting: next, `Cc1scc2c1N(C(=O)CN1CCN(C)CC1)c1ccccc1NC2=O` [Telenzepine dihydrochloride]: 25 nM.
Consider Neuropeptide S (from UniProt P0C0P6), for which the Kd in assay [4] is 0.33 nM.

Usually IC50 stands for the concentration that gives 50% inhibition. Usually Kd stands for a measure of binding affinity in units of concentration.
